Structures are written as SMILES.

For the experiment, the target named is T1, c-Abl protein tyrosine kinase (Homo sapiens, UniProt P00519).
T1 construct: c-Abl Kinase Fragment, Amino Acids 218-500; Factor Xa cleavage site (IEGR) (N); made in house; host or cells: baculovirus / Sf9 insect cells
T1 sequence (P00519 with tags, fused parts or gaps): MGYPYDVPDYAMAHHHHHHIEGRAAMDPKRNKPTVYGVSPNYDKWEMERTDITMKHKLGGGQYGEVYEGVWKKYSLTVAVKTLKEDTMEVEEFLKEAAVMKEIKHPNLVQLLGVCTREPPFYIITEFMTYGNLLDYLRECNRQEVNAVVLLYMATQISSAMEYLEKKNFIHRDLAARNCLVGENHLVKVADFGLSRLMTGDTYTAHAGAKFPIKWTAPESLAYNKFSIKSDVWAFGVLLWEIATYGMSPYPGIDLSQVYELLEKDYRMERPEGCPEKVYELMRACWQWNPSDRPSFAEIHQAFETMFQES
The experiment is described as follows: c-Abl protein tyrosine kinase filter binding assay ([32P]-ATP, Poly-AEKY substrate). It counts as biochemical. The following applies: hit from HTD; in vitro confirmation test described, IC50 not given. As for the experimental part:
The top scoring poses are evaluated interactively using molecular graphics to select those compounds which formed favorable intermolecular hydrogen bonds and van der Waals interactions with the c-Abl kinase receptor model, as well as to eliminate compounds containing cis-amides and non-aromatic tautomers. Compounds are also selected for desirable drug-like properties, such as size, lipophilicity and chemical stability. The resulting “hit” compounds are confirmed as leads for drug optimization, by their in vitro evaluation in a test for activity against c-Abl protein tyrosine kinase. The test is conducted as a filter binding assay as follows: The His-tagged kinase domain of c-Abl is cloned and expressed in the baculovirus/Sf9 system. See Bhat et al., J Biol Chem, Vol. 27, pp. 16170-16175 (1997). […] Membranes are counted after drying at ambient temperature, mounting in Packard TopCount 96-well frame, and addition of 10 μL/well of Microscint™ (Packard). The activity of the compounds is quantified as IC50 and IC90 values, as determined from their dose response curves by graphical extrapolation. Thus, IC50 values are determined by linear regression analysis of the percentages for the inhibition of each compound in at least four concentrations (as a rule 0.01, 0.1, 1.0 and […]).

For the compound `COc1cccc(-n2cc(-c3cccc(OCCNCCO)c3)c3ncnc(N)c32)c1` [2-[[2-[3-[4-amino-5-(3-methoxyphenyl)-5H-pyrrolo[3,2-d]pyrimidin-7-yl]phenoxy]ethyl]amino]-ethanol], the “inhibition of c-Abl kinase (hit identified by virtual screening)” value is given as “specific inhibitors of c-Abl kinase”.

For the origin of these results see US20060030017A1, “Three-dimensional structure of c-Abl” (priority 2004, published 2006).
